Target: human Kv1.5 potassium channel alpha subunit (Homo sapiens, UniProt P22460)
Test: High throughput Kv1.5 planar patch clamp assay (Kv1.5 HT-clamp, IonWorks HT)
Assay type: cell-based
Set-up: Kv1.5 HT-clamp % inhibition: dose or concentration left out as unconfirmed
Conditions: for IC50: CHO cells stably expressing human Kv1.5, 27th depolarization to +40 mV in 5 Hz train
Excerpt: The high throughput Kv1.5 planar patch clamp assay is a systematic primary screen. It confirms activity and provides a functional measure of the potency of agents that specifically affect Kv1.5 potassium channels. Kiss et al. (Assay and Drug Dev. Tech., 1(1-2):127-135, 2003) and Schroeder et al. (J. of Biomol. Screen., 8(1); 50-64, 2003) describe the use of this instrument for Kv1.5 as well as other voltage gated ion channels.
Chinese hamster ovary cells (CHO) stably expressing the human Kv1.5 potassium channel alpha subunit, cloned from human heart, are grown to 90-100% confluence in Ham's F12 medium supplemented with 10% FBS, 100 U/ml penicillin, 100 μg/ml streptomycin, 1000 μg/ml G-418 sulfate. Cells are subcultured by treatment with Versene, then suspended in phosphate-buffered saline (PBS) and centrifuged The cell pellet is re-suspended in PBS and the resulting suspension placed in the cell reservoir of the IonWorks™ HT instrument.
Electrophysiological recordings are performed with intracellular solution containing (mM): K-gluconate 100, KCl 40, MgCl2 3.2, EGTA 3, N-2-hydroxylethylpiperazine-N^1-2-ethanesulphonic acid (HEPES) 5, adjusted to pH 7.3. Amphotericin (Sigma) is prepared as 30 mg/ml stock solution and diluted to a final working concentration of 0.1 mg/ml in internal buffer solution. The external solution is Dulbecco's PBS (Invitrogen) and contains (mM): CaCl2 0.90, KCl 2.67, K3PO4 1.47, MgCl2 0.50, NaCl 138, Na3PO4 8.10 and has a pH of 7.4. All compounds are prepared as 10 mM stock solutions in DMSO. Compounds are diluted into external buffer, then transferred from the drug plate to the Patchplate during the experiment (final DMSO concentration <0.66% vol.).
Kv1.5 ionic currents are recorded at room temperature. Membrane currents are amplified (RMS ˜10 pA) and sampled at 10 kHz. Leak subtraction was performed in all experiments by applying a 160 ms hyperpolarizing (10 mV) pre-pulses 200 ms before the test pulses to measure leak conductance. The patch clamp stimulus protocol is as follows: • 1. Patchplate wells are loaded with 3.5 μL of external buffer. • 2. Planar micropipette hole resistances (Rp) is determined by applying a 10 mV, 160 ms potential difference across each hole (Hole test). • 3. Cells are pipetted into the Patchplate and form high resistance seals with the 1-2 μm holes at the bottom of each Patchplate well. A seal test scan is performed to determine how many of the Patchplate wells have cells that have formed seals. • 4. In order to gain electrical access to the cells, intracellular solution containing amphotericin is circulated for 4 minutes on the bottom side of the Patchplate. • 5. Pre-compound addition test pulse is applied to each well on the Patchplate. Protocol: Cells are voltage clamped at a membrane holding potential of −80 mV for 15 seconds. This is followed by application of a 5 Hz stimulus train (27×150 ms depolarizations to +40 mV). The membrane potential steps to +40 mV evoke outward (positive) ionic currents. • 6. Compound is added to each well of the Patchplate. Compounds are allowed to incubate for 5 minutes. • 7. Post-compound addition test pulse protocol is applied. Protocol: Cells are voltage clamped at a membrane holding potential of −80 mV for 15 seconds. This is followed by application of a 5 Hz stimulus train (27×150 ms depolarizations to +40 mV).
Data analysis is conducted off-line. Paired comparisons between pre-drug and post-drug additions are used to determine the inhibitory effect of each compound. % inhibition of the peak control current during the 27th depolarization to +40 mV (in the 5 Hz train) is plotted as a function of antagonist concentration. The concentrations of drug required to inhibit current by 50% (IC50) are determined by fitting of the Hill equation to the concentration response data: % of Control=100×(1+([Drug]/IC50)^p)^−1 […]

human Kv1.5 potassium channel alpha subunit, sequence (P22460 whole entry): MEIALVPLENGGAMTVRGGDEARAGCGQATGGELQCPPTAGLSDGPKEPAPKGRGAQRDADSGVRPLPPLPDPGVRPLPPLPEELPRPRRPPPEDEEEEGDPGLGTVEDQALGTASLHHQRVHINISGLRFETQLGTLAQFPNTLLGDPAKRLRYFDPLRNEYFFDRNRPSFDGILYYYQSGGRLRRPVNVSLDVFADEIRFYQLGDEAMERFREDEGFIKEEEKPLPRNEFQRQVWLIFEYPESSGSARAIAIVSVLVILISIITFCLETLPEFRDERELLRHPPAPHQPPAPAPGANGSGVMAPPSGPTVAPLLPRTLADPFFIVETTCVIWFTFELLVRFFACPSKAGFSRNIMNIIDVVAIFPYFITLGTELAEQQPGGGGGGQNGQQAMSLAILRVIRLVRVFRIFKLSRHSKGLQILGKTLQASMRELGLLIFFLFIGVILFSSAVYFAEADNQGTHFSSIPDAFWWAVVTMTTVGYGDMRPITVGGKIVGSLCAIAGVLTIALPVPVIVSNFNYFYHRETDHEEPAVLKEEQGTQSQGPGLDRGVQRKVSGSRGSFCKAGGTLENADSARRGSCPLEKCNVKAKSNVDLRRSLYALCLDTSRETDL

Question: OC(c1cccnc1-c1cc(Cl)cc(Cl)c1)C(c1cccnc1)c1cccnc1 (racemic) [Example 1 Racemic, racemic 1-[2-(3,5-dichlorophenyl)pyridin-3-yl]-2,2-dipyridin-3-ylethanol] was tested. Which IC50 did it give?
Answer: 116 nM

Question: With OC(c1cccnc1-c1cccc(C(F)(F)F)c1)C(c1cccnc1)c1cccnc1 (racemic) [Example 2 Racemic, racemic 2,2-dipyridin-3-yl-1-{2-[3-(trifluoromethyl)-phenyl]pyridin-3-yl}ethanol] as the molecule, how does the IC50 read?
Answer: 266 nM

Question: With OC(c1cccnc1-c1ccccc1Cl)C(c1cccnc1)c1cccnc1 (racemic) [Example 4 Racemic, racemic 1-[2-(2-chlorophenyl)pyridin-3-yl]-2,2-dipyridin-3-ylethanol] as the molecule, how does the IC50 read?
Answer: 422 nM

Question: OC(c1cccnc1-c1cc(Cl)ccc1Cl)C(c1cccnc1)c1cccnc1 (racemic) [Example 5 Racemic, racemic 1-[2-(2,5-dichlorophenyl)pyridin-3-yl]-2,2-dipyridin-3-ylethanol] was tested. Which IC50 did it give?
Answer: 77 nM

Question: With OC(c1cccnc1-c1cccc(Cl)c1Cl)C(c1cccnc1)c1cccnc1 (racemic) [Example 6 Racemic, racemic 1-[2-(2,3-dichlorophenyl)pyridin-3-yl]-2,2-dipyridin-3-ylethanol] as the molecule, how does the IC50 read?
Answer: 110 nM

Question: With OC(c1cccnc1-c1cccc(C(F)(F)F)c1)C(c1cccnc1)c1cccnc1 (single isomer, unassigned) [Example 2 Enantiomer A, 2,2-dipyridin-3-yl-1-{2-[3-(trifluoromethyl)phenyl]pyridin-3-yl}ethanol] as the molecule, how does the IC50 read?
Answer: 290 nM

Question: For OC(c1cccnc1-c1cccc(C(F)(F)F)c1)C(c1cccnc1)c1cccnc1 (single isomer, unassigned) [Example 2 Enantiomer B, 2,2-dipyridin-3-yl-1-{2-[3-(trifluoromethyl)phenyl]pyridin-3-yl}ethanol], which IC50 is on record?
Answer: 8220 nM

Question: How did the IC50 turn out when OC(c1cccnc1-c1cc(Cl)cc(Cl)c1)C(c1cccnc1)c1cccnc1F (single isomer, unassigned) [Example 3 Isomer 1, Enantiomer A, 1-[2-(3,5-dichlorophenyl)pyridin-3-yl]-2-(2-fluoropyridin-3-yl)-2-pyridin-3-ylethanol] was run?
Answer: 96 nM

Question: With OC(c1cccnc1-c1cc(Cl)cc(Cl)c1)C(c1cccnc1)c1cccnc1F (single isomer, unassigned) [Example 3 Isomer 1, Enantiomer B, 1-[2-(3,5-dichlorophenyl)pyridin-3-yl]-2-(2-fluoropyridin-3-yl)-2-pyridin-3-ylethanol] as the molecule, how does the “Kv1.5 HT-clamp % inhibition” value read?
Answer: 72%

Question: With OC(c1cccnc1-c1cc(Cl)cc(Cl)c1)C(c1cccnc1)c1cccnc1F (single isomer, unassigned) [Example 3 Isomer 2, Enantiomer A, 1-[2-(3,5-dichlorophenyl)pyridin-3-yl]-2-(2-fluoropyridin-3-yl)-2-pyridin-3-ylethanol] as the molecule, how does the IC50 read?
Answer: 154 nM

Question: Which inhibition at 10 µM (at 10000 nM) does the source give for OC(c1cccnc1-c1cc(Cl)cc(Cl)c1)C(c1cccnc1)c1cccnc1F (single isomer, unassigned) [Example 3 Isomer 2, Enantiomer B, 1-[2-(3,5-dichlorophenyl)pyridin-3-yl]-2-(2-fluoropyridin-3-yl)-2-pyridin-3-ylethanol] here?
Answer: 89%

Question: OC(c1cccnc1-c1ccccc1Cl)C(c1cccnc1)c1cccnc1 (single isomer, unassigned) [Example 4 Enantiomer A, 1-[2-(2-chlorophenyl)pyridin-3-yl]-2,2-dipyridin-3-ylethanol] was tested. Which IC50 did it give?
Answer: 171 nM

Question: For OC(c1cccnc1-c1ccccc1Cl)C(c1cccnc1)c1cccnc1 (single isomer, unassigned) [Example 4 Enantiomer B, 1-[2-(2-chlorophenyl)pyridin-3-yl]-2,2-dipyridin-3-ylethanol], which IC50 is on record?
Answer: 25000 nM

Question: With OC(c1cccnc1-c1cc(Cl)ccc1Cl)C(c1cccnc1)c1cccnc1 (single isomer, unassigned) [Example 5 Enantiomer A, 1-[2-(2,5-dichlorophenyl)pyridin-3-yl]-2,2-dipyridin-3-ylethanol] as the molecule, how does the IC50 read?
Answer: 3200 nM

Question: How did the IC50 turn out when OC(c1cccnc1-c1cc(Cl)ccc1Cl)C(c1cccnc1)c1cccnc1 (single isomer, unassigned) [Example 5 Enantiomer B, 1-[2-(2,5-dichlorophenyl)pyridin-3-yl]-2,2-dipyridin-3-ylethanol] was run?
Answer: 75 nM

Question: With OC(c1cccnc1-c1cccc(Cl)c1Cl)C(c1cccnc1)c1cccnc1 (single isomer, unassigned) [Example 6 Enantiomer A, 1-[2-(2,3-dichlorophenyl)pyridin-3-yl]-2,2-dipyridin-3-ylethanol] as the molecule, how does the IC50 read?
Answer: 5210 nM

Question: How did the IC50 turn out when OC(c1cccnc1-c1cccc(Cl)c1Cl)C(c1cccnc1)c1cccnc1 (single isomer, unassigned) [Example 6 Enantiomer B, 1-[2-(2,3-dichlorophenyl)pyridin-3-yl]-2,2-dipyridin-3-ylethanol] was run?
Answer: 236 nM

Question: With O[C@@H](c1cccnc1-c1cc(Cl)cc(Cl)c1)C(c1cccnc1)c1cccnc1 [(R)-1-[2-(3,5-dichlorophenyl)pyridin-3-yl]-2,2-dipyridin-3-ylethanol] as the molecule, how does the IC50 read?
Answer: 90 nM

Question: O[C@H](c1cccnc1-c1cc(Cl)cc(Cl)c1)C(c1cccnc1)c1cccnc1 [(S)-1-[2-(3,5-dichlorophenyl)pyridin-3-yl]-2,2-dipyridin-3-ylethanol] was tested. Which IC50 did it give?
Answer: 2920 nM
